From patent US20260034120A1, “TREATING CANCER WITH LONG-ACTING TOPOISOMERASE I INHIBITOR” (priority 2022, published 2026)

Experiments:
[1] = cited from earlier work; for t½: humans, PLX038 prodrug and SN-38 released from it
MX-1 xenografts = experiment: PLX038A, TLZ and combination in MX-1 xenografts; format: in vivo, mice; conditions: PLX038A 15 μmol/kg, TLZ 0.4 μmol/kg/day
From the text: When tumors reached 170 mm^3, mice received a single intraperitoneal dose of vehicle, a single intraperitoneal dose of PLX038A (15 μmol/kg), a daily oral dose of talazoparib (0.4 μmol/kg) or a combination of PLX038A (15 μmol/kg) and daily oral TLZ (0.4 μmol/kg) starting on either day 0 (same day as PLX038A dosing) or day 4.

22Rv1 ATM KO xenografts = experiment: PLX038A, TLZ and combination in 22Rv1 ATM KO xenografts; format: in vivo
[2] = system: metastatic breast cancer with pathogenic germline ATM mutation; experiment: PLX038 and rucaparib in a patient with ATM deficient breast cancer (NCT04209595); format: in vivo, human; conditions: single-agent low-dose PLX038 after rucaparib suspension at 4 months
Protocol: A patient with metastatic breast cancer and germline ATM mutation was enrolled in the ongoing dose escalation phase of the trial. […] The patient was initially diagnosed with locally advanced invasive ductal carcinoma and was treated with neoadjuvant chemotherapy followed by surgery and radiation. Nine years later, they developed metastatic disease expressing estrogen and progesterone receptors, and was treated with multiple anti-endocrine therapies and chemotherapies including eribulin, abraxane, and carboplatin. […] At enrolment, they had skin lesions on the breast which were painful and pruritic and in addition had involvement of the lung and bones. […] The mutation results from a C to T substitution at nucleotide position 5908 and creates a premature translational stop signal which is expected to result in an absence or disrupted ATM protein. The variant was not present in population databases such as ExaC but has been reported in the literature in individuals with ataxia-telangiectasia and recognized as a founder mutation in the Costa Rican population.

For `CCc1c2c(nc3ccc(O)cc13)-c1cc3c(c(=O)n1C2)COC(=O)[C@]3(O)CC` [SN-38], the half-life ([1]; SN-38 formed from CPT-11) is listed as roughly 12 h and the t½ [1] is listed as “about 5 days”.
In the case of `Cn1ncnc1[C@H]1c2n[nH]c(=O)c3cc(F)cc(c23)N[C@@H]1c1ccc(F)cc1` [TLZ, talazoparib], the T/C3 wk (MX-1 xenografts) was 0.21, the T/C3 wk (22Rv1 ATM KO xenografts; PLX038A 1.9 μmol/kg, TLZ 0.2 μmol/kg/day) was 0.76 and the T/C3 wk (22Rv1 ATM KO xenografts; PLX038A 1.95 μmol/kg, TLZ 0.3 μmol/kg/day) was 0.69. For the same compound, the T/C3 wk (22Rv1 ATM KO xenografts; PLX038A 3.75 μmol/kg, TLZ 0.2 μmol/kg/day) was 0.76, the T/C3 wk (22Rv1 ATM KO xenografts; PLX038A 3.75 μmol/kg, TLZ 0.3 μmol/kg/day) was 0.69 and the T/C3 wk (22Rv1 ATM KO xenografts; PLX038A 7.5 μmol/kg, TLZ 0.4 μmol/kg/day) was 0.72. The “inhibition of tumor growth” value (22Rv1 ATM KO xenografts; TLZ QD PO 0.2 μmol/kg) was “insignificantly inhibitory” and the “inhibition of tumor growth” value (22Rv1 ATM KO xenografts; TLZ QD PO 0.4 μmol/kg) was “modestly inhibitory”.
In the case of “O-[7-(tetra-polyethylene glycol ether)-carboxamido-1-cyano-2-heptyl]-N-(10′-methoxy-7′-ethyl-camptothecin)-N-[4′-(diethylcarbamoyl)phenyl)]carbamate [PLX038]”, the t½ [1] is listed as “about 5 days” and the “duration of sustained suppression of the tumor after treatment initiation” value [2] is listed as 12 months.
